Experimental data from patent US20250346593A1, “IMIDAZO(1,2-1)PYRIDINE DERIVATIVES AS RIPK2 INHIBITORS” (Interline Therapeutics, Inc., priority 2022, published 2025).
Like-named read-outs stand apart in the source and are kept apart here.

How the values were obtained:
[1] = system: NF-κB pathway (SEAP) in THP1-Dual cells; assay: THP-1 Dual cell SEAP assay (L18-MDP stimulated); format: cell-based; conditions: Homo sapiens, THP1-Dual, read-out: NFkB THP1 IC50
[2] = target: GST-RIPK2 fusion protein (human RIPK2 amino acids 1-310) (Homo sapiens (Human), UniProt O43353); assay: RIPK2 binding competition assay (TR-FRET, Tracer 199)
Chain of GST-RIPK2 fusion protein (human RIPK2 amino acids 1-310) (O43353 1-310): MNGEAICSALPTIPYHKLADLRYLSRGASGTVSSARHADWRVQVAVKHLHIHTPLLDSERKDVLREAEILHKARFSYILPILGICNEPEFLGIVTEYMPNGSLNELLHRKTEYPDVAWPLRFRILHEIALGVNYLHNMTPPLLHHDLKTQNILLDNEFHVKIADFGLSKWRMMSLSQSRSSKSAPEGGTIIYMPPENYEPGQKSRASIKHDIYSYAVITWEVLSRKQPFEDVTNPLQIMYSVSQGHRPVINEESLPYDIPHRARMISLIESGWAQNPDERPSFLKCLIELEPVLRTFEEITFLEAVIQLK

[3] = read-out: RIPK2 IC50, RIPK2 binding competition assay

For COc1cc2ncc(-c3cccc(NS(=O)(=O)C(C)(C)C)c3)n2cc1S(=O)(=O)C(C)(C)C [Example 277, N-(3-(6-(tert-butylsulfonyl)-7-methoxyimidazo[1,2-a]pyridin-3-yl)phenyl)-2-methylpropane-2-sulfonamide], the IC50 [1] was < 50 nM and the IC50 [2] was 2.5 to 20 nM.
CCCS(=O)(=O)Nc1cccc(-c2cnc3cc(OC)c(S(=O)(=O)C(C)(C)C)cn23)c1 [Example 269, N-(3-(6-(tert-butylsulfonyl)-7-methoxyimidazo[1,2-a]pyridin-3-yl)phenyl)propane-1-sulfonamide] showed an IC50 [1] of 250 to 1000 nM and an IC50 [2] of 1 to 2.5 nM.
With COc1cc2ncc(-c3cc(F)c(OC)c(NCCN)c3)n2cc1S(=O)(=O)C(C)(C)C [Example 329, N1-(5-(6-(tert-butylsulfonyl)-7-methoxyimidazo[1,2-a]pyridin-3-yl)-3-fluoro-2-methoxyphenyl) ethane-1,2-diamine] the IC50 [1] was 250 to 1000 nM and the IC50 [2] was 2.5 to 20 nM.
For COc1cn2ncc(-c3ccc(N)c(C#N)c3)c2cc1S(=O)(=O)C(C)(C)C [Example 95, 2-amino-5-(5-(tert-butylsulfonyl)-6-methoxypyrazolo[1,5-a]pyridin-3-yl)benzonitrile], the IC50 [1] was 250 to 1000 nM and the IC50 [2] was 2.5 to 20 nM.
In the case of COc1cc2ncc(-c3cc(F)nc(NCCC(C)(C)OC)c3)n2cc1S(=O)(=O)C(C)(C)C [Example 176, 4-(6-(tert-butylsulfonyl)-7-methoxyimidazo[1,2-a]pyridin-3-yl)-6-fluoro-N-(3-methoxy-3-methylbutyl)pyridin-2-amine], the IC50 [1] is reported as < 50 nM and the IC50 [2, 3] is reported as < 1 nM.
For CCCS(=O)(=O)Nc1cc(-c2cnc3cc(OC)c(S(=O)(=O)C4CC4)cn23)cc(OC)c1OC [Example 274, N-(5-(6-(cyclopropylsulfonyl)-7-methoxyimidazo[1,2-a]pyridin-3-yl)-2,3-dimethoxyphenyl)propane-1-sulfonamide], the IC50 [1] was 50 to 250 nM and the IC50 [2] was < 1 nM.
For CCCS(=O)(=O)Nc1ccc(F)c(-c2cnc3cc(OC)c(S(=O)(=O)C(C)(C)C)cn23)c1 [Example 287, N-(3-(6-(tert-butylsulfonyl)-7-methoxyimidazo[1,2-a]pyridin-3-yl)-4-fluorophenyl)propane-1-sulfonamide], the IC50 [1] was > 1000 nM and the IC50 [2, 3] was > 20 nM.
In the case of COc1cc2ncc(-c3csc(N)n3)n2cc1S(=O)(=O)C(C)(C)C [Example 165, 4-(6-(tert-butylsulfonyl)-7-methoxyimidazo[1,2-a]pyridin-3-yl)thiazol-2-amine], the IC50 [1] is reported as 250 to 1000 nM and the IC50 [2] is reported as 2.5 to 20 nM.
With CCCS(=O)(=O)Nc1cc(-c2cnn3ccc(S(=O)(=O)C(C)(C)C)cc23)cc(OC)c1OC [Example 139, N-(5-(5-(tert-butylsulfonyl)pyrazolo [1,5-a]pyridin-3-yl)-2,3-dimethoxyphenyl) propane-1-sulfonamide] the IC50 [1] was 50 to 250 nM and the IC50 [2] was 1 to 2.5 nM.
In the case of COc1cc2ncc(-c3ccc(N(C)C)nc3)n2cc1S(=O)(=O)C(C)(C)C [Example 16, 5-(6-(tert-butylsulfonyl)-7-methoxyimidazo[1,2-a]pyridin-3-yl)-N,N-dimethylpyridin-2-amine], the IC50 [1] is reported as > 1000 nM and the IC50 [2, 3] is reported as > 20 nM.
With COc1cc2ncc(-c3cc(F)nc(NCC(C)(C)O)c3)n2cc1C(=O)N(C)C [Example 249, 3-{2-fluoro-6-[(2-hydroxy-2-methylpropyl)amino]pyridin-4-yl}-7-methoxy-N,N-dimethylimidazo[1,2-a]pyridine-6-carboxamide] the IC50 [1] was 250 to 1000 nM and the IC50 [2, 3] was > 20 nM.
COc1cc2ncc(-c3cc(C)c(OC)c(Cl)n3)n2cc1S(=O)(=O)C(C)(C)C [Example 55, 6-(tert-butylsulfonyl)-3-(6-chloro-5-methoxy-4-methylpyridin-2-yl)-7-methoxyimidazo[1,2-a]pyridine] was tested, and the IC50 [1] was > 1000 nM and the IC50 [2, 3] was > 20 nM.
With COc1cc2ncc(-c3cc(F)c(N)nc3OC)n2cc1S(=O)(=O)C(C)(C)C [Example 106, 5-(6-(tert-butylsulfonyl)-7-methoxyimidazo[1,2-a]pyridin-3-yl)-3-fluoro-6-methoxypyridin-2-amine] the IC50 [1] was 250 to 1000 nM and the IC50 [2] was 2.5 to 20 nM.
With COc1cc2ncc(-c3cc(F)nc(NCC4CCNCC4)c3)n2cc1S(=O)(=O)C(C)(C)C [Example 301, 4-(6-(tert-butylsulfonyl)-7-methoxyimidazo[1,2-a]pyridin-3-yl)-6-fluoro-N-(piperidin-4-ylmethyl)pyridin-2-amine] the IC50 [1] was 50 to 250 nM and the IC50 [2] was 1 to 2.5 nM.
In the case of COc1cc2ncc(-c3cc(F)nc(N[C@@H]4CCCC[C@H]4O)c3)n2cc1S(=O)(=O)C(C)(C)C (single isomer, unassigned) [Example 244, trans-(15,2S or 1R,2R)-2-({6-fluoro-4-[7-methoxy-6-(2-methylpropane-2-sulfonyl)imidazo[1,2-a]pyridin-3-yl]pyridin-2-yl}amino)cyclohexan-1-ol], the IC50 [1] is reported as 250 to 1000 nM and the IC50 [2] is reported as 2.5 to 20 nM.
With COc1cc2ncc(-c3cc(C)c(OC)c(NCCCO)n3)n2cc1S(=O)(=O)C(C)(C)C [Example 311, 3-((6-(6-(tert-butylsulfonyl)-7-methoxyimidazo[1,2-a]pyridin-3-yl)-3-methoxy-4-methylpyridin-2-yl)amino)propan-1-ol] the IC50 [1] was 250 to 1000 nM and the IC50 [2] was 2.5 to 20 nM.
With CCCS(=O)(=O)Nc1cc(-c2cnc3cc(OC)c(S(=O)(=O)C(C)(C)C)cn23)cc(OC)c1C [Example 136, N-(5-(6-(tert-Butylsulfonyl)-7-methoxyimidazo[1,2-a]pyridin-3-yl)-3-methoxy-2-methylphenyl)propane-1-sulfonamide] the IC50 [1] was > 1000 nM and the IC50 [2] was 2.5 to 20 nM.
COc1cn2ncc(-c3cc(NS(C)(=O)=O)c(OC)c(OC)c3)c2cc1S(=O)(=O)C(C)(C)C [Example 141, N-(5-(5-(tert-butylsulfonyl)-6-methoxypyrazolo[1,5-a]pyridin-3-yl)-2,3-dimethoxyphenyl) methanesulfonamide] gave an IC50 [1] of 50 to 250 nM and an IC50 [2] of 1 to 2.5 nM.
Work on CCOc1cn2ncc(-c3cc(Cl)c(N)nc3F)c2cc1S(=O)(=O)C(C)(C)C [Example 114, 5-(5-(tert-butylsulfonyl)-6-ethoxypyrazolo[1,5-a]pyridin-3-yl)-3-chloro-6-fluoropyridin-2-amine] yielded an IC50 [1] of 50 to 250 nM and an IC50 [2] of 1 to 2.5 nM.
In the case of COc1cc2ncc(-c3cc(F)c(OC)c(OCCO)c3)n2cc1S(=O)(=O)C(C)(C)C [Example 338, 2-(5-(6-(tert-butylsulfonyl)-7-methoxyimidazo[1,2-a]pyridin-3-yl)-3-fluoro-2-methoxyphenoxy)ethan-1-ol], the IC50 [1] is reported as > 1000 nM and the IC50 [2] is reported as 2.5 to 20 nM.
For CCOc1cc2ncc(-c3cc(F)nc(NCCCO)c3)n2cc1S(=O)(=O)C(C)C [Example 243, 3-({4-[7-ethoxy-6-(propane-2-sulfonyl)imidazo[1,2-a]pyridin-3-yl]-6-fluoropyridin-2-yl}amino)propan-1-ol], the IC50 [1] was < 50 nM and the IC50 [2, 3] was < 1 nM.
For COc1cc2ncc(-c3cc(F)c(N)cc3F)n2cc1S(=O)(=O)C(C)(C)C [Example 81, 4-(6-(tert-butylsulfonyl)-7-methoxyimidazo[1,2-a]pyridin-3-yl)-2,5-difluoroaniline], the IC50 [1] was 250 to 1000 nM and the IC50 [2] was 2.5 to 20 nM.
For COc1cn2ncc(-c3cc(F)c(N)nc3F)c2cc1S(=O)(=O)C(C)(C)C [Example 100, 5-(5-(tert-butylsulfonyl)-6-methoxypyrazolo[1,5-a]pyridin-3-yl)-3,6-difluoropyridin-2-amine], the IC50 [1] was 250 to 1000 nM and the IC50 [2] was 2.5 to 20 nM.
